Reference: US5118669A, “Peptides and intermediates therefor useful as antiallergic agents, vasodilators and immunoregulators” (Hitachi Chemical Co., Ltd., priority 1989, dated 1992)

Experiments:
[1] = test system: thoracic aorta of male rabbits contracted with norepinephrine; experiment: Vasodilating action on aortic spiral strip contracted with norepinephrine; parameters: species or system rabbit; conditions: norepinephrine contraction
Procedure: (§1) The thoracic aorta of male rabbits weighing 2.5-3 kg was excised and aortic specimens of spiral strip 25-30 mm in length were prepared. […] The specimen was cumulatively administered with H-Asp-Gly-Lys-OH, H Ser-Asp-Gly-Lys-OH, or H-Asp-Ser-Asp-Gly-Lys-OH or H-Ala-Asp-Ser-Asp-Gly-Lys-OH, and relaxation reaction of the blood vessel was observed. As comparative drug were employed nitroprusside (sodium salt) and verapamil.

[2] = test system: thoracic aorta of male rabbits contracted with potassium chloride; experiment: Vasodilating action on aortic spiral strip contracted with potassium chloride; parameters: species or system rabbit; conditions: potassium chloride contraction
Procedure: as §1

IL-6 = experiment: Productivity of humoral factors by lymphocytes: IL-6; assay type: cell-based, human (healthy adult); conditions: for IL-6: cultivation for a week, control 270
Procedure: (§2) Mononuclear cells separated by the density centrifugal method from blood of a healthy adult drawn in the presence of heparin were suspended in an RPMI-1640 culture medium containing 10% by volume of FBS. The suspension was divided into culture tubes (Falcon 2054) each at a concentration of 1×10^6 cells/ml, to which the captioned peptides were respectively added. Cultivation was made in an incubator for a week. After completion of the cultivation, the culture was centrifuged (1,500 rpm, 10 min.), and the supernatant collected and assayed for humoral factors. Interleukin 1 (IL-1) and tumor-nectrotizing factors were measured, respectively by a IL-1 radioimmunoassay kit (manufactured by Amersham International) and a TNF radioimmunoassay kit (manufactured by Medgenix). Measurement of interleukin 6 (IL-6) was made by the enzyme immunoassay method (ELISA) using IL-6 antibody (manufactured by Genzyme). Results of the measurements are shown in Table 7 wherein figures represent mean value±standard error.

[3] = test system: intraperitoneal mast cells of the rats; experiment: Inhibitory activity on histamine release from passively sensitized rat mast cells; assay type: cell-based
Procedure: Male Wistar rats weighing 300-350 g were passively sensitized, and intraperitoneal mast cells of the rats were employed for the test. Rat antiserum used in the passive sensitization was prepared in accordance with the method of Mota [Immunology, 7, p. 681 (1964)] and the method of Hamaoka [J. Immunology, 113, p. 958 (1974)]. Male Wistar rats (weighing 200-250 g) each were injected ovalbumin (10 mg/kg) in a volume of 5 ml/kg intramuscularly on both thighs and simultaneously 2×10^10 cells of killed Bordetella pertussis were intraperitoneally administered to immunize the animal. Blood was drawn from the animal under ether anesthesia via the abdominal aorta on day 12 of the initial sensitization,from which antiserum was separated. The antiserum was lyophilized and stored at -20° C. Titer of the antiserum was assayed by the 48-hour rat PCA reaction. […] The anti-albumin IgE serum of the rat was two fold diluted, and 1 ml of the diluted serum was intraperitoneally administered to sensitize the animal. The rat was killed by blooding 48 hours after the sensitization, and 15 ml of a phosphate buffered saline (NaCl 8 g, KCl 0.2 g, Na2 HPO4.12H2 O 2.88 g, KH2 PO4 0.2 g, EDTA.2Na 0.2 g and bovine serum albumin 1 g, dissolved in purified water to make 1 liter, pH 7.4 (called PBS(-) hereinbelow) was intraperitoneally injected. The rat was then given light abdominal massage for about 2 min. and subjected to laparotomy to collect cells in the abdominal cavity. The cell suspension was centrifuged (1,000 rpm, 10 min.) and then resuspended in PBS(-). The PBS(-) suspension was overlayered on gum arabic density (specific gravity 1.075) followed by centrifugal separation (2,500 rpm, 10 min.). Deposited cells were washed with PBS(-) and suspended in fresh PBS(+)[a solution in which the EDTA 2Na in PBS(-) is replaced by 0.1 g of CaCl2, called PBS(+)] and adjusted to 1×10^5 cells/ml. The cell suspension was divided into silicone-treated test tubes in a volume of 0.8 ml/tube, which were then preincubated at 37° C. for 10 min. In the cell suspension-containing test tube was placed 0.1 ml of a test solution from various solutions diluted with PBS(+) followed by incubation at 37° C. for 15 min. To the test tube was then added 0.1 ml of a mixed solution of ovalbumin antigen (final concentration 1 mg/ml) and phosphatidyl-L-serine (final concentration 100 μm/ml) followed by incubation for additional 15 min. to release histamine. For cromoglycate, one of the comparative drugs, the drug was added 30 sec. prior to the addition of the antigen, and incubation was then made for additional 15 min. The reaction was terminated by addition of 1 ml of ice-cooled PBS(+), and the reaction mixture was centrifuged at 2,500 rpm for 10 min. To 2 ml of the supernatant was added 1 ml of a 4% solution of perchloric acid, and the mixture was assayed for free histamine. For the assay of total histamine, a sample was prepared by placing 0.8 ml of a suspension of untreated mast cells in boiling water for 10 min. followed by addition of 4% perchloric acid.
Amount of histamine in the sample was assayed by fluorimetry, and percent histamine release (%) was calculated by the equation [formula]

TNF = experiment: Productivity of humoral factors by lymphocytes: TNF; assay type: cell-based, human (healthy adult); conditions: for TNF: cultivation for a week, control 2,020
Procedure: as §2

[4] = test system: lymphocytes (mononuclear cells from blood of a healthy adult); experiment: Blast formation of lymphocytes stimulated with various lectins (3H-thymidine uptake); assay type: cell-based, human (healthy adult)
Procedure: Mononuclear cells were collected by the density centrifugal method from blood of a healthy adult drawn in the presence of heparin and suspended in an RPMI-1640 culture medium (manufactured by Gibco) containing 10% by volume of bovine fetus serum (called FBS, manufactured by Dainihon Seiyaku). The suspension, adjusted to a concentration of 1×10^6 cells/ml, was divided into a 96-well Falcon microplate (manufactured by Becton Dickinson) in a volume of 100 μl/well. Then, a lectin, 1 μg/ml of PHA (phytohemagglutinin), 10 μg/ml of Con-A (concanavalin A) or 15 μg/ml of PWM (pokeweed mitogen) and one of the captioned peptides at a predetermined concentration were added followed by addition of a 10% FBS containing RPMI-1640 medium to a final liquid volume of 200 μl. Cultivation was made in a 5% by volume CO2 incubator at 37° C. for 72 hours, and 24 hours before completion of the cultivation 5 μCi of ^3 H-thymidine was added. The cells were recovered by a cell harvester (manufactured by Bio-Lab), and uptake of the ^3 H-thymidine was measured by a scintillation counter. Results of the measurement are shown in Table 3-Table 6 wherein figures indicate mean count (cpm)±standard error.

IL-1 = experiment: Productivity of humoral factors by lymphocytes: IL-1; assay type: cell-based, human (healthy adult); conditions: for IL-1: cultivation for a week, control 7.1
Procedure: as §2

Substance: H-Ser-Asp-Gly-Lys-OH (H-SDGK-OH) [tetrapeptide]
- Percent relaxation ([1]; compound 10^-4 M): 52.6%
- Percent relaxation ([1]; compound 10^-5 M): 25.0%
- Percent relaxation ([1]; compound 10^-6 M): 17.7%
- Percent relaxation ([1]; compound 10^-7 M): 9.1%
- Percent relaxation ([1]; compound 10^-8 M): 1.7%
- Percent relaxation ([2]; compound 10^-4 M): 18.6%
- Percent relaxation ([2]; compound 10^-5 M): 7.2%
- Percent relaxation ([2]; compound 10^-6 M): 0%
- Percent relaxation ([2]; compound 10^-7 M): 0%
- Percent relaxation ([2]; compound 10^-8 M): 0%
- IL-6 (IL-6; additive 10^-6 M): 280 U/ml
- IL-6 (IL-6; additive 10^-8 M): 350 U/ml
- production of IL-6 (IL-6; summary of Table 7): promote production
- inhibitory activity on histamine release ([3]; at a concentration of 10^-5 M or higher, FIG. 5-7): clear inhibitory activity
- potency of histamine release inhibition compared with H-Asp-Ser-Asp-Pro-Arg-OH ([3]; versus comparative drug H-Asp-Ser-Asp-Pro-Arg-OH): higher
- potency of histamine release inhibition compared with cromoglycate ([3]; versus cromoglycate): nearly equal to or higher
- TNF (TNF; additive 10^-6 M): 4,260 pg/ml
- TNF (TNF; additive 10^-8 M): 3,620 pg/ml
- production of TNF (TNF; summary of Table 7): promote production
- Uptake of 3H-thymidine by lymphocytes ([4]; Con-A (10 μg/ml), peptide 10^-6 M, control 37,800): 24,000 cpm
- Uptake of 3H-thymidine by lymphocytes ([4]; Con-A (10 μg/ml), peptide 10^-8 M, control 37,800): 24,200 cpm
- Uptake of 3H-thymidine by lymphocytes ([4]; PHA (1 μg/ml), peptide 10^-6 M, control 69,600): 59,000 cpm
- Uptake of 3H-thymidine by lymphocytes ([4]; PHA (1 μg/ml), peptide 10^-8 M, control 69,600): 62,100 cpm
- Uptake of 3H-thymidine by lymphocytes ([4]; PWM (15 μg/ml), peptide 10^-6 M, control 13,600): 9,000 cpm
- Uptake of 3H-thymidine by lymphocytes ([4]; PWM (15 μg/ml), peptide 10^-8 M, control 13,600): 10,000 cpm
- uptake of 3H-thymine by the lymphocytes stimulated with a lectin ([4]; lectin-stimulated, particularly Con-A, summary of Tables 3-6): strongly inhibit
- Uptake of 3H-thymidine by lymphocytes ([4]; mitogen None, peptide 10^-6 M, control 1,090): 911 cpm
- Uptake of 3H-thymidine by lymphocytes ([4]; mitogen None, peptide 10^-8 M, control 1,090): 1,436 cpm
- influence upon uptake of 3H-thymine by lymphocytes in the absence of a mitogen ([4]; no mitogen, summary of Tables 3-6): little influence
- IL-1 (IL-1; additive 10^-6 M): 11.2 fM/ml
- IL-1 (IL-1; additive 10^-8 M): 10.7 fM/ml
- production of IL-1 (IL-1; summary of Table 7): promote production
